{"source": "patent US9402925B2", "about": "“Probes and methods of imaging a bacterial infection” (The Board of Trustees of the Leland Stanford Junior …, priority 2013, dated 2016)", "key": {"Escherichia coli": {"test_system": "Escherichia coli", "assay": "Competition assay: blocking of 3H-maltose uptake by E. coli", "format": "cell-based", "conditions": "co-incubation, 1 mM; 3H-labeled maltose uptake for 10 mins; FIG. 2.4", "procedure": "Coli and a mammalian cell line (EL4) were exposed to [^18F] 7. […] 7 by E. […] The uptake in E. Coli could also be blocked by co-incubation with 1 mM of cold maltose (98% blocking, p<0.0003), the natural substrate of the transporter. […] Here we allowed bacteria to take up ^3H-labeled maltose for 10 mins."}, "E-.Coli (ATCC33456) [1]": {"test_system": "E-.Coli (ATCC33456)", "assay": "Competition assay: blocking of 18F-fluoromaltose uptake in E. coli by co-incubation", "format": "cell-based, Escherichia coli", "conditions": "co-incubation with 1 mM", "procedure": "(§1) A strain of E-.Coli (ATCC33456) and a mammalian cell line (EL4) were exposed to 1-[^18F]-fluoromaltose or [^18F]-6-fluoromaltose. All bacteria and cells were then washed in 1×PBS, lysed and radioactivity of each well was determined by gamma counter for ^18F samples. All results were done in triplicate and are expressed in counts per minute (CPM), standard errors were determined and t tests performed. The uptake in E. Coli could also be blocked by co-incubation with 1 mM of cold maltose or 1 mM of 1-fluoromaltose.\n(§2) To evaluate the ability of bacteria and cells to uptake [^18F]-6-fluoromaltose (7) and 1-[^18F]-fluoromaltose (11), a strain of E. Coli and a mammalian cell line (EL4) were exposed to 7 and 11. […] The uptake in E. Coli could also be blocked by co-incubation with 1 mM of cold maltose (98% blocking, p<0.0003), the natural substrate of the transporter. Likewise, ^3H-maltose uptake in E. Coli was blocked both with 1 mM maltose and 1-fluoromaltose (FIG. 2.4)."}, "[2]": {"assay": "In vivo stability of 1-[18F]fluoromaltose"}, "[3]": {"conditions": "PBS, human and mouse serum at 37° C.", "procedure": "Serum (human or mouse) was centrifuged at about 4° C., maximum speed for about 10 min. About 330 μL of supernatant was transferred to an Eppendorf vial containing 20 μL of formulated radiolabelled 6-[^18F]fluoromaltose (50-100 μCi minimum). For control, same volume of radiolabelled compound in 330 μl PBS was used. After vortexing the radiolabelled mixtures, 70 μL aliquots transferred to Eppendorf tubes and incubated at about 37° C. At predetermine time points (e.g., 0, 5, 15, 30, 60 min) 140 μL of ice-cold methanol were added to corresponding samples to stop metabolism. After vortexing and centrifuging samples (10 min max speed), the supernatants were transferred to HPLC vials for HPLC analysis.\nThe percentage of intact 6-[^18F]fluoromaltose in PBS, human and mouse serum at 37° C. was determined by HPLC."}, "E-.Coli (ATCC33456) [4]": {"test_system": "E-.Coli (ATCC33456)", "assay": "In vitro uptake assay in E. coli", "format": "cell-based, Escherichia coli", "conditions": "radioactivity by gamma counter, CPM, FIG. 2.3", "procedure": "as §1, §2"}, "[5]": {"test_system": "mammalian cell line (EL4)", "assay": "In vitro uptake assay in mammalian cell line EL4", "format": "cell-based", "conditions": "60 minutes post incubation with tracer", "procedure": "as §1, §2"}}, "note": "“Also recorded” adds a separate entry of the source. Where two headings read alike, the source gives them in different places.", "data": [{"smiles": "OC[C@H]1O[C@H](O[C@H]2[C@H](O)[C@@H](O)C(O)O[C@@H]2CO)[C@H](O)[C@@H](O)[C@@H]1O", "note": "(mixture of isomers) [maltose]", "values": [{"measurement": "blocking of 3H-maltose uptake in E. Coli", "setting": "Escherichia coli", "value": "completely blocked; also recorded: effectively compete"}, {"measurement": "blocking of 18F-fluoromaltose uptake in E. Coli", "setting": "E-.Coli (ATCC33456) [1]", "value": "completely blocked"}, {"measurement": "blocking of [18F]-6-fluoromaltose uptake in E. Coli", "setting": "E-.Coli (ATCC33456) [1]; p<0.0003", "value": 98, "unit": "%"}]}, {"smiles": "OC[C@H]1O[C@H](O[C@H]2[C@H](O)[C@@H](O)C([18F])O[C@@H]2CO)[C@H](O)[C@@H](O)[C@@H]1O", "note": "(stereo partly drawn) [1-[^18F]-fluoromaltose, 4-O-(α-D-glucopyranosyl)-1-deoxy-1-[^18F]-fluoro-D-glucopyranoside]", "values": [{"measurement": "stability in vivo (de-fluorination)", "setting": "[2]", "value": "not stable in vivo and very fast de-fluorinated"}, {"measurement": "uptake of [18F]fluoride ion by the bones", "setting": "[2]; after de-fluorination", "value": "very high"}]}, {"smiles": "OC[C@H]1O[C@H](O[C@H]2[C@H](O)[C@@H](O)C(F)O[C@@H]2CO)[C@H](O)[C@@H](O)[C@@H]1O", "note": "(stereo partly drawn) [1-fluoromaltose]", "values": [{"measurement": "blocking of 3H-maltose uptake in E. Coli", "setting": "Escherichia coli", "value": "completely blocked; also recorded: effectively compete"}, {"measurement": "blocking of 18F-fluoromaltose uptake in E. Coli", "setting": "E-.Coli (ATCC33456) [1]", "value": "blocked"}]}, {"smiles": "OC[C@H]1O[C@H](O[C@H]2[C@H](O)[C@@H](O)C(O)O[C@@H]2C[18F])[C@H](O)[C@@H](O)[C@@H]1O", "note": "(stereo partly drawn) [6-[^18F]-fluoromaltose, 4-O-(α-D-glucopyranosyl)-6-deoxy-6-[^18F]-fluoro-D-glucopyranoside]", "values": [{"measurement": "percentage intact 6-[18F]fluoromaltose", "setting": "[3]; 1 h", "value": "~96", "unit": "%"}, {"measurement": "percentage intact 6-[18F]fluoromaltose", "setting": "[3]; 2 h", "value": "~65", "unit": "%"}, {"measurement": "uptake by E. Coli", "setting": "E-.Coli (ATCC33456) [4]", "value": "take up"}, {"measurement": "uptake by E. Coli", "setting": "E-.Coli (ATCC33456) [4]; listed as [^18F]-6-fluoromaltose", "value": "time dependent"}, {"measurement": "uptake by mammalian cell line (EL4)", "setting": "[5]", "value": "minimal"}]}]}
